“And” between values parts separate entries of the source, which are not always exact repeats. Equal values may be shown once. Read-outs that look alike come from different tables or passages of the source.
What was measured:
[1] = tested on: [^3H]-ADMA transport across the blood-brain and blood-CSF barriers; assay: cross-inhibition, in situ perfusion: [^3H]-ADMA with 100 μM unlabelled L-arginine; format: in vivo, mouse; settings: for inhibition of [^3H]-ADMA uptake: 100 μM unlabelled L-arginine; for inhibition at 100 µM: Mus musculus
Method: (§1) Self-inhibition experiments were also performed. […] Cross-competition experiments were also performed.
(§2) The percentage change in the RTissue uptake values achieved in the absence or presence of an unlabelled inhibitor can be calculated by means of Eq 4.
(§3) %change=RTissue−RInhibition/RTissue×100 Eq 4
(§4) We define RInhibition as the RTissue uptake in the presence of an inhibitor in the artificial plasma.
(§5) A decrease in the uptake of radiolabelled solute in the presence of unlabelled inhibitor is indicative of a saturable influx transport system. Conversely, an increase in the uptake of radiolabelled solute in the presence of unlabelled inhibitor is indicative of a saturable efflux transport system.

CAT1 = settings: HEK293 overexpressing CAT1; read-out: IC50, inhibition of CAT1-mediated cellular uptake of ADMA; cited from earlier work
[2] = tested on: [^3H]-arginine transport across the blood-brain and blood-CSF barriers; assay: self-inhibition, in situ perfusion: [^3H]-arginine with 100 μM unlabelled L-arginine; format: in vivo, mouse
Method: as §1, §2, §3, §4, §5

[3] = pH 7.4
Method: (§6) The lipophilicity of the radiolabelled test molecules was also measured by means of an octanol:saline partition coefficient. […] Centrifugation separated the hydrophobic (octanol) phase and hydrophilic (saline) phase and 100 μL samples in triplicate were taken for radioactive liquid scintillation counting on a Tricarb 2900TR liquid scintillation counter (Perkin-Elmer; Boston, MA, USA). The partition coefficient was calculated as the ratio of radioactivity in the octanol phase to the radioactivity in the aqueous phase.

[4] = 500 μM; isolated incubated rat choroid plexus; cited from earlier work
hCMEC/D3 cells = settings: [^3H]-arginine 7 nM; hCMEC/D3 accumulation; cited from earlier work
[5] = in situ brain/choroid plexus perfusion: CNS uptake of [^3H]-arginine, [^3H]-ADMA and [^14C]-sucrose (multiple-time and single-time uptake analysis); settings: for Kin: single-time point analysis, corrected for [^14C]-sucrose; for Kin / [^3H]-ADMA/ [^3H]-arginine, rate of uptake: 10-minute perfusion; for ability to cross the blood-brain and blood-CSF barriers: in situ perfusion; for Kp at 30 min, […] / Kp at […], […]: male, BALB/c, mouse
Method: All animals used in procedures were adult male BALB/c mice (between 23 g and 25 g) sourced from Harlan Laboratories, Oxon, UK, unless otherwise stated.
Animals were weighed immediately before the administration of the anaesthetic to ensure correct dosage. Domitor® (medetomidine hydrochloride) and Vetalar® (ketamine) were both purchased from Harlan Laboratories (Cambridge, UK). All animals were terminally anaesthetised (2 mg/kg Domitor® and 150 mg/kg Vetalar® injected intraperitoneally), and a lack of self-righting and paw-withdrawal reflexes (as surrogate indicators of consciousness) thoroughly checked prior to and during all procedures. If needed, additional anaesthetic was administered via the same route. […] At the end of the in situ brain perfusion procedure the animal was killed by decapitated under non-recovery anaesthesia. Animals were heparinised with 100 units heparin (in 0.9% m/v NaCl(aq), Harlan Laboratories; Oxon, UK), administered via the intraperitoneal route prior to surgery.
The in situ brain/choroid plexus perfusion method is designed to directly perfuse the brain with artificial plasma via a cannula placed in the heart. Artificial plasma is prepared to mimic the ionic composition of blood, and transporter inhibitors can be added in known concentrations and delivered to the brain for defined periods of time.
The left ventricle of the heart was cannulated with a 25G x 10 mm butterfly-winged needle connected to the perfusion circuit. […] The right atrium of the heart was sectioned to allow outflow of the artificial plasma. […] Radiolabelled and unlabelled test molecules were infused into the inflowing artificial plasma for periods up to 30 minutes.
At the set perfusion time a CSF sample was taken by inserting a pulled glass micropipette connected to silicon tubing and a syringe into the cisterna magna. Gentle suction was applied, and CSF was withdrawn. Only clear CSF samples were processed and taken for analysis. Samples contaminated with blood were discarded. The animal was then decapitated and the brain removed. Specific brain samples including the circumventricular organs (CVOs) were taken using a Leica S4E L2 stereomicroscope (Leica; Buckinghamshire, UK). The brain samples included the frontal cortex, caudate nucleus, occipital cortex, hippocampus, hypothalamus, thalamus, pons and cerebellum. The CVOs included the choroid plexus, pituitary gland and pineal gland.
All samples (brain regions, capillary depletion brain homogenate, pellet and supernatant, CVOs, CSF and plasma samples) were solubilised in 0.5 mL tissue solubiliser (Solvable; Perkin-Elmer; Boston, MA, USA). After incubating the samples at room temperature for 48 h, 4 mL scintillation fluid (Lumasafe®; Perkin-Elmer; Boston, MA, USA) was added to each before vigorous vortexing.

[6] = capillary depletion analysis after in situ brain perfusion; format: in vivo, mouse; settings: 10-minute perfusion; for Kin: single-time point analysis, corrected for [^14C]-sucrose
Method: The microvasculature within a sample of brain tissue can be separated from the brain parenchyma using capillary depletion analysis. Following perfusion, the remaining brain tissue after microdissection of the regions described above (typically 200–300 mg) underwent capillary depletion following a method modified for mouse. […]

[7] = octanol:saline partition coefficient; settings: pH 7.4; for octanol-saline partition coefficient: mean ± SEM of 3 tubes
Method: as §6

[8] = 100μM unlabelled L-arginine, CSF, 10 minutes

N=C(N)NCCC[C@H](N)C(=O)O [L-arginine]
inhibition of [^3H]-ADMA uptake ([1]; CSF, pineal gland, choroid plexus and pituitary gland, 10 minutes): up to 78.6% | effect on [^3H]-ADMA distribution [1, 8]: no effect | inhibition of [^3H]-ADMA uptake ([1]; brain regions, 10 minutes): up to 80.4% | inhibition at 100 µM ([1]; read-out: inhibition of [^3H]-ADMA distribution): ≤ 80.8% | IC50 (CAT1): 227 µM | inhibition of [^3H]-arginine uptake [2, 8]: 62.2% | inhibition of [^3H]-arginine uptake ([2]; 100μM unlabelled arginine, average of capillary depletion samples, 10 minutes): approximately 56% | inhibition of [^3H]-arginine uptake ([2]; 100μM unlabelled arginine, average of eight brain regions, 10-minute perfusion): approximately 67% | inhibition of [^3H]-arginine distribution ([2]; 100μM unlabelled arginine, choroid plexus, 10 minutes): 57.3% | inhibition of [^3H]-arginine distribution ([2]; 100μM unlabelled arginine, pineal gland, 10 minutes): 39.4% | inhibition of [^3H]-arginine distribution ([2]; 100μM unlabelled arginine, pituitary gland, 10 minutes): 48.1% | octanol-saline partition coefficient [3]: 0.00149±0.00016

CNC(=N)NCCC[C@H](N)C(=O)O [N^G-methyl-L-arginine]
effect on [^3H]-arginine uptake [4]: can be inhibited

N=C(N)NCCC[C@H](N)C(=O)O [[^3H]-arginine, reference compound]
ability to cross brain capillary endothelial cell membranes compared to [^3H]-ADMA (38 nM) (hCMEC/D3 cells): more than -three to -five-fold | Kin ([5]; CSF): 1.08 ± 0.24 µL/min/g | Kin ([5]; Caudate nucleus): 5.40 ± 0.67 µL/min/g | Kin ([5]; Cerebellum): 5.10 ± 0.50 µL/min/g | Kin ([5]; Frontal Cortex): 5.84 ± 0.86 µL/min/g | Kin ([5]; Hippocampus): 4.72 ± 0.56 µL/min/g | Kin ([5]; Hypothalamus): 7.26 ± 1.76 µL/min/g | Kin ([5]; Occipital Cortex): 4.98 ± 0.72 µL/min/g | Kin ([5]; Pons): 5.58 ± 0.97 µL/min/g | Kin ([5]; Thalamus): 5.87 ± 1.07 µL/min/g | ability to cross the BBB in situ relative to [^3H]-ADMA ([5]; eight brain regions and capillary depletion samples): more than two-fold in most cases | ability to cross the blood-brain and blood-CSF barriers [5]: can cross the blood-brain barrier (BBB) and the blood-CSF barrier | Kp at 30 min, […] ([5]; CSF): 1.2 ± 0.251 | Kp at […], […] ([5]; CSF): 0.0441 ± 0.0141 | Kp at 30 min, […] ([5]; frontal cortex): 1.77 ± 0.316 | Kp at […], […] ([5]; frontal cortex): 0.29 ± 0.0403 | Kp at 30 min, […] ([5]; pons): ~1.85 | Vi relative to [^14C]-sucrose space in the same experiment ([5]; multiple-time uptake analysis over 30 minutes, data not shown): up to 13 fold | Kin ([6]; Homogenate): 3.97 ± 0.67 µL/min/g | Kin ([6]; Pellet): 0.70 ± 0.10 µL/min/g | Kin ([6]; Supernatant): 2.35 ± 0.42 µL/min/g

N=C(N)NCCC[C@H](N)C(=O)O [arginine]
inhibition at 100 µM ([1]; read-out: inhibition of [^3H]-ADMA (62.5 nM) transport): 64.3 to 80.8%

[^3H]-ADMA [reference compound]
[^3H]-ADMA/ [^3H]-arginine, rate of uptake ([5]; CSF): 249.5% | uptake into the CSF (CSF to plasma) ([5]; CSF, […], data uncorrected for [^14C]-sucrose): approximately 4% | Kin ([5]; CSF): 2.70 ± 0.90 µL/min/g | [^3H]-ADMA/ [^3H]-arginine, rate of uptake ([5]; Caudate nucleus): 44.6% | Kin ([5]; Caudate nucleus): 2.41 ± 0.29 µL/min/g | [^3H]-ADMA/ [^3H]-arginine, rate of uptake ([5]; Cerebellum): 31.7% | Kin ([5]; Cerebellum): 1.62 ± 0.19 µL/min/g | [^3H]-ADMA/ [^3H]-arginine, rate of uptake ([5]; Frontal Cortex): 42.7% | Kin ([5]; Frontal Cortex): 2.49 ± 0.35 µL/min/g | [^3H]-ADMA/ [^3H]-arginine, rate of uptake ([5]; Hippocampus): 46.1% | Kin ([5]; Hippocampus): 2.17 ± 0.17 µL/min/g | [^3H]-ADMA/ [^3H]-arginine, rate of uptake ([5]; Hypothalamus): 41.9% | Kin ([5]; Hypothalamus): 3.04 ± 0.30 µL/min/g | [^3H]-ADMA/ [^3H]-arginine, rate of uptake ([5]; Occipital Cortex): 45.2% | Kin ([5]; Occipital Cortex): 2.25 ± 0.16 µL/min/g | [^3H]-ADMA/ [^3H]-arginine, rate of uptake ([5]; Pons): 44.2% | Kin ([5]; Pons): 2.46 ± 0.34 µL/min/g | [^3H]-ADMA/ [^3H]-arginine, rate of uptake ([5]; Thalamus): 35.8% | Kin ([5]; Thalamus): 2.10 ± 0.17 µL/min/g | distribution into the choroid plexus (tissue to plasma) ([5]; 30 minutes): approximately 40% | distribution into the choroid plexus (tissue to plasma) ([5]; peak at 10 minutes): approximately 240% | distribution (RBRAIN, tissue to plasma) corrected for [^14C]-sucrose ([5]; frontal cortex, 20 minutes): 27.64±4.30% | distribution (RBRAIN, tissue to plasma) corrected for [^14C]-sucrose ([5]; frontal cortex, 30 minutes): 10.41±2.77% | distribution (RBRAIN, tissue to plasma) corrected for [^14C]-sucrose ([5]; frontal cortex, […]): 9.86±1.43% | ability to cross the blood-brain and blood-CSF barriers [5]: can cross the blood-brain barrier (BBB) and the blood-CSF barrier | CNS-to-blood efflux ([5]; multiple-time uptake studies, loss of linearity): significant CNS-to-blood efflux | octanol-saline partition coefficient, single tube ([7]; Tube A, B or C): 0.00217 and 0.00237 and 0.00225 | octanol-saline partition coefficient [7]: 0.00226±0.00006 | octanol-saline partition coefficient ([7]; listed as 3H ADMA): 0.00226 | [^3H]-ADMA/ [^3H]-arginine, rate of uptake ([6]; Homogenate): 31.9% | Kin ([6]; Homogenate): 1.27 ± 0.56 µL/min/g | [^3H]-ADMA/ [^3H]-arginine, rate of uptake ([6]; Pellet): 11.4% | Kin ([6]; Pellet): 0.08 ± 0.20 µL/min/g | [^3H]-ADMA/ [^3H]-arginine, rate of uptake ([6]; Supernatant): 36.6% | Kin ([6]; Supernatant): 0.86 ± 0.16 µL/min/g

From PMC11501026, “L-Arginine and asymmetric dimethylarginine (ADMA) transport across the mouse blood-brain and blood-CSF barriers: Evidence of saturable transport at both interfaces and CNS to blood efflux” (PLOS ONE, 2024)
